Where “and” joins values, the source holds several entries; their conditions need not be identical. Identical values can stand only once.
Target: Substance-P receptor (Homo sapiens, UniProt P25103)
Sequence (P25103 whole entry): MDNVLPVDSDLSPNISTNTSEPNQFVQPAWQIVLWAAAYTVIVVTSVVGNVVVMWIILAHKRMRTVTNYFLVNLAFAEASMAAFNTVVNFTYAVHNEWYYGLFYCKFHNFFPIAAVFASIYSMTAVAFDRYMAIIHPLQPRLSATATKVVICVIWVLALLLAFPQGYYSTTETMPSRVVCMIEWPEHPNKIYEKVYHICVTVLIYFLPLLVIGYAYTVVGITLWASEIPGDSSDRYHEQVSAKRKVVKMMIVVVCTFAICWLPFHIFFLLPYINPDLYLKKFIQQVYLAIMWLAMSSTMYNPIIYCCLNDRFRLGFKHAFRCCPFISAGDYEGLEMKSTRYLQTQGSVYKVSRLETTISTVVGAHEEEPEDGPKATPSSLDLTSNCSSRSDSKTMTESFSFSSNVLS

CN(C[C@@H](CCN1CCC(c2ccccc2[S+](C)[O-])CC1)c1ccc(Cl)c(Cl)c1)C(=O)c1cc(C#N)cc2ccccc12 (stereo partly specified)
Ki: 610 pM and 120 pM
